From ChEMBL document CHEMBL1781926, “Synthesis of 1-naphtylpiperazine derivatives as serotoninergic ligands and their evaluation as antiproliferative agents” (Eur J Med Chem, 2011)
The source made the active and inactive calls. No cut-off for these calls is given here.

Experiments:
[1] = target: T1, Adrenergic receptor alpha-1 (Rattus norvegicus, UniProt P15823+P23944+P43140); test: Displacement [3H]prazosin from alpha1 adrenergic receptor in rat brain cortex homogenates after 30 mins by liquid scintillation counting; assay type: tissue-based
T1 sequence (P15823 whole entry): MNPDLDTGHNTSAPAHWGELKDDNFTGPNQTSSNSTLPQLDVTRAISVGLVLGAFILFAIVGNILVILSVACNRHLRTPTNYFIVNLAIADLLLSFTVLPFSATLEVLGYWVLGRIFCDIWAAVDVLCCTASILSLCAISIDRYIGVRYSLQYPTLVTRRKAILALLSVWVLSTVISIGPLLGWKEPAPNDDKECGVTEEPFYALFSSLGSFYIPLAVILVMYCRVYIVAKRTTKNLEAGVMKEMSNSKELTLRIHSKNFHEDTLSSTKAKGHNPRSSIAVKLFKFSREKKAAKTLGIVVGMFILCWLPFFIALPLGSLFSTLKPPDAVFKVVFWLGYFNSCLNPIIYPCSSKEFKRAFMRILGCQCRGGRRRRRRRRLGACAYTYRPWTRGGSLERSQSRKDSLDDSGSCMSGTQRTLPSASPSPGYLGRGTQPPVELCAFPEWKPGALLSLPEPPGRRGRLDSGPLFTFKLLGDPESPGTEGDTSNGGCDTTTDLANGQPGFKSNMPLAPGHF
T1 sequence (P23944 whole entry): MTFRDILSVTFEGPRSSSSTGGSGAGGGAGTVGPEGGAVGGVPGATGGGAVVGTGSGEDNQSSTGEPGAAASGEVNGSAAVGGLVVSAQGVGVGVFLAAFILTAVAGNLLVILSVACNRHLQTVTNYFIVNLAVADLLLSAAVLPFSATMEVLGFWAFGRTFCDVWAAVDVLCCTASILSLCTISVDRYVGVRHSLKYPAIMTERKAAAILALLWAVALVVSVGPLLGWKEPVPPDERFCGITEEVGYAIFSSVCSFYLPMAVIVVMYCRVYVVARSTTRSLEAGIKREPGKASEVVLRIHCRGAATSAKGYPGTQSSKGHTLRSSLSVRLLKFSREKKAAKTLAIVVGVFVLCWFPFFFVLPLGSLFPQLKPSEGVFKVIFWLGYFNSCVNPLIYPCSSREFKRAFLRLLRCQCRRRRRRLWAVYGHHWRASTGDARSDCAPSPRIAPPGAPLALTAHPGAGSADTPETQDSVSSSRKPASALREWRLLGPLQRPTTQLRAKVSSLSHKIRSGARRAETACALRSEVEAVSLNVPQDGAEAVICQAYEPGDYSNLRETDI
T1 sequence (P43140 whole entry): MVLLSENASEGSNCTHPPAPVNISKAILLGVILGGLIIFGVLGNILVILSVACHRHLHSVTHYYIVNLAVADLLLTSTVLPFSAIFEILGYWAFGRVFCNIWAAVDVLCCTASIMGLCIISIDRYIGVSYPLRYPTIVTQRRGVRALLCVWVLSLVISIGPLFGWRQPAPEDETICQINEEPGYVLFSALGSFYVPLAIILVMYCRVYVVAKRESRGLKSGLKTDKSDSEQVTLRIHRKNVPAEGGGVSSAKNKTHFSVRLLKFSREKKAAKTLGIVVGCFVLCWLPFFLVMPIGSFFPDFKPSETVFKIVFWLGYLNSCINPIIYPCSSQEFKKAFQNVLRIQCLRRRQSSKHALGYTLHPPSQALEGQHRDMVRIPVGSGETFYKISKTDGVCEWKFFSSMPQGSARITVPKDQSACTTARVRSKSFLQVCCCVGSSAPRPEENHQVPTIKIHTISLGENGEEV

[2] = target: T2, 5-hydroxytryptamine receptor 1A (Rattus norvegicus, UniProt P19327); test: Displacement of [3H]8-OH-DPAT from 5HT1A receptor in Sprague-Dawley rat brain cortex homogenates after 30 mins by liquid scintillation counting; assay type: tissue-based
T2 sequence (P19327 whole entry): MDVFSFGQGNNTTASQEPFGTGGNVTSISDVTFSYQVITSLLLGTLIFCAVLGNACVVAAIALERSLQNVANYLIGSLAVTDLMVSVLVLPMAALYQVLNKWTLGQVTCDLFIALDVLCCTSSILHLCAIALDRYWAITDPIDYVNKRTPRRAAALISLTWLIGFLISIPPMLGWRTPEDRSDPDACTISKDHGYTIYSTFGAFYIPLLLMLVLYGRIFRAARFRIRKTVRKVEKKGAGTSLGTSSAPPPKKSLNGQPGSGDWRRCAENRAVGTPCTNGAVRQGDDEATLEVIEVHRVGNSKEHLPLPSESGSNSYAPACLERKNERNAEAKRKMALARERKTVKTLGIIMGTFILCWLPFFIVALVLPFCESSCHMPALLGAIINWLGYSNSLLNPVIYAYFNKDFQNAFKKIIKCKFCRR

PC-3 [3] = test: Cell cycle arrest in human PC3 cells assessed as accumulation at G1 phase at 15 uM after 72 hrs using propidium iodide staining by flow cytometry (reference value: 42.19 %); assay type: functional
PC-3 [4] = test: Cell cycle arrest in human PC3 cells assessed as accumulation at G2 phase at 15 uM after 72 hrs using propidium iodide staining by flow cytometry (reference value: 20.18 %); assay type: functional
PC-3 [5] = test: Cell cycle arrest in human PC3 cells assessed as accumulation at S phase at 15 uM after 72 hrs using propidium iodide staining by flow cytometry (reference value: 37.73 %); assay type: functional
PC-3 [6] = test: Induction of apoptosis in human PC3 cells at 15 uM after 72 hrs using propidium iodide staining by flow cytometry (reference value: 1.79 %); assay type: functional
PC-3 [7] = test: Induction of apoptosis human PC3 cells assessed as externalization of phosphatidylserine on the outer layer of plasma membrane at 15 uM after 24 to 48 hrs using Annexin-V-FITC staining by flow cytometry; assay type: functional, cell-based
PC-3 [8] = test: Cell cycle arrest in human PC3 cells assessed as accumulation at G1 phase at 15 uM after 24 hrs using propidium iodide staining by flow cytometry (reference value: 46.97 %); assay type: functional
PC-3 [9] = test: Cell cycle arrest in human PC3 cells assessed as accumulation at G2 phase at 15 uM after 24 hrs using propidium iodide staining by flow cytometry (reference value: 18.19 %); assay type: functional
PC-3 [10] = test: Cell cycle arrest in human PC3 cells assessed as accumulation at S phase at 15 uM after 24 hrs using propidium iodide staining by flow cytometry (reference value: 34.84 %); assay type: functional
PC-3 [11] = test: Induction of apoptosis in human PC3 cells at 15 uM after 24 hrs using propidium iodide staining by flow cytometry (reference value: 1.27 %); assay type: functional
PC-3 [12] = test: Cell cycle arrest in human PC3 cells assessed as accumulation at G1 phase at 15 uM after 48 hrs using propidium iodide staining by flow cytometry (reference value: 54.14 %); assay type: functional
PC-3 [13] = test: Cell cycle arrest in human PC3 cells assessed as accumulation at G2 phase at 15 uM after 48 hrs using propidium iodide staining by flow cytometry (reference value: 13.36 %); assay type: functional
PC-3 [14] = test: Cell cycle arrest in human PC3 cells assessed as accumulation at S phase at 15 uM after 48 hrs using propidium iodide staining by flow cytometry (reference value: 38.16 %); assay type: functional
PC-3 [15] = test: Induction of apoptosis in human PC3 cells at 15 uM after 48 hrs using propidium iodide staining by flow cytometry (reference value: 0.84 %); assay type: functional

Row | SMILES | Ki [1] [µM] | Ki [2] [µM] | Activity (PC-3 [3]) [%] | Activity (PC-3 [4]) [%] | Activity (PC-3 [5]) [%] | Activity (PC-3 [6]) [%] | Activity (PC-3 [7]) | Activity (PC-3 [8]) [%] | Activity (PC-3 [9]) [%] | Activity (PC-3 [10]) [%] | Activity (PC-3 [11]) [%] | Activity (PC-3 [12]) [%] | Activity (PC-3 [13]) [%] | Activity (PC-3 [14]) [%] | Activity (PC-3 [15]) [%]
1 | O=c1c2ccccc2nnn1CCCN1CCN(c2cccc3ccccc23)CC1 | 0.562 | 0.00779 | 43.11 | 28.65 | 28.24 | 2.25 | Active | 37.55 | 27.3 | 35.15 | 1.71 | 44.13 | 22.29 | 33.58 | 2.12
2 | O=c1c2ccccc2nnn1OCCN1CCN(c2cccc3ccccc23)CC1 | > 10 | > 10 |  |  |  |  |  |  |  |  |  |  |  |  | 
3 | O=c1c2ccccc2nnn1OCCCN1CCN(c2cccc3ccccc23)CC1 | 0.8 | > 10 |  |  |  |  |  |  |  |  |  |  |  |  | 
4 | O=c1c2ccccc2nnn1CCN1CCN(c2cccc3ccccc23)CC1 | 0.112 |  | 45.86 | 24.19 | 29.95 | 2.17 | Active | 38.38 | 24.17 | 37.45 | 2.17 | 41.36 | 24.08 | 34.56 | 2.79

More lines, main results first:

Row | Ki [1] [µM] | Ki [2] [µM] | SMILES | Activity (PC-3 [3]) [%] | Activity (PC-3 [4]) [%] | Activity (PC-3 [5]) [%] | Activity (PC-3 [6]) [%] | Activity (PC-3 [7]) | Activity (PC-3 [8]) [%] | Activity (PC-3 [9]) [%] | Activity (PC-3 [10]) [%] | Activity (PC-3 [11]) [%] | Activity (PC-3 [12]) [%] | Activity (PC-3 [13]) [%] | Activity (PC-3 [14]) [%] | Activity (PC-3 [15]) [%]
5 | > 10 | 0.00158 | O=C1C2C3C=CC(C3)C2C(=O)N1OCCN1CCN(c2cccc3ccccc23)CC1 (centres undefined) |  |  |  |  |  |  |  |  |  |  |  |  | 
6 | > 10 | 0.00585 | N#C/N=C(\NCCCN1CCN(c2cccc3ccccc23)CC1)c1ccccn1 |  |  |  |  |  |  |  |  |  |  |  |  | 
7 | > 10 | 0.000293 | O=C1C2C3C=CC(C3)C2C(=O)N1OCCCN1CCN(c2cccc3ccccc23)CC1 (centres undefined) |  |  |  |  |  |  |  |  |  |  |  |  | 
